Reference: article PMC7932521, “2-aminobenzimidazoles for leishmaniasis: From initial hit discovery to in vivo profiling” (PLoS Neglected Tropical Diseases, 2021)
Converted amounts (≈) assume the structure as drawn. Where two headings read alike, the source gives them in different places.

Columns and labels:
[1] = test system: Leishmania infantum MHOM/MA(BE)/67/ITMAP263 amastigotes; assay: L. infantum intracellular amastigote assay in PMM; type: cell-based; settings: for IC50: read-out: L. infantum IC50; for SI: selectivity index (CC50 / IC50): CC50 / L. infantum IC50
Description: (§1) Leishmania infantum MHOM/MA(BE)/67/ITMAP263 amastigotes were collected from the spleen of infected donor Golden hamsters. Primary peritoneal mouse macrophages (PMM) were used as host cells for in vitro assays. PMM were collected from Swiss mice after 2 days of peritoneal stimulation with a 2% suspension of potato starch and maintained in RPMI-1640 medium supplemented with 200 mM L-glutamine, antibiotics and 5% FCS at 37°C and 5% CO2. Promastigotes of L. infantum chagasi (luciferase) (MHOM/BR/2005/NLC) obtained as described in Reimão et al.,[27] were grown in M199 medium supplemented with 10% FCS, 0.25% hemin, 32 μg/ml hygromycin and 2% sterile human urine at 25°C and 5% CO2.
(§2) Stock solutions of the compounds at 20 mM were prepared in 100% DMSO. Next, the compounds were serially pre-diluted in DMSO followed by a further dilution in demineralized water to assure a final in-test DMSO concentration below 1%. The compounds were tested at 4-fold dilutions starting at 64 μM.
For the antileishmania in vitro assays, 3×10^4 PMM/well were seeded in 96-well plates. After 24h, 5×10^5 amastigotes/well were added and incubated for 2h at 37°C. Next, the compounds in 4-fold serial dilutions were added and the plates were further incubated for 5 days (37°C, 5% CO2). Parasite burdens were assessed using an inverted microscope after Giemsa staining. The results were expressed as percent reduction in parasite burdens compared to negative control wells (100% growth) and IC50 values were determined. Values represent the geometric mean of at least two independent experiments. Miltefosine was used as the positive control in all plates.

[2] = test system: PMM (Primary Mouse Macrophages); assay: Cytotoxicity on primary peritoneal mouse macrophages; type: cell-based; settings: read-out: PMM IC50
Description: as §1, §2

MRC-5 cytotoxicity = type: cell-based; settings: human, MRC-5 cells; S1 Data
HEPG2 cytotoxicity = type: cell-based; settings: human, HepG2 cells; S1 Data
Source text: Supplement pntd.0009196.s001.xlsx, sheet "Complete Dataset" | column: HEPG2 CC50 (uM)

[3] = Experimental distribution coefficient (eLogD); type: physicochemical
Description: To determine the lipophilicity of the compounds, a methodology based on the retention time of molecules in reverse stationary phase (Ascentis RP-Amide HPLC column) was used. The chromatogram was obtained using LC-MS/MS. Test compounds were prepared at 1.0 μg/mL by adding the stock solution at (1:1) mobile phases A:B + internal standard at 200nM (A: 5% methanol in 10mM ammonium acetate pH 7.4, B: 100% methanol), DMSO concentration must be lower than 2%. […] The retention time (in minutes) of each of the eight standards was plotted against their LogD values. The resulting equation for the calibration curve (y = mx + b) was used to calculate the LogD values for the test compounds.

[4] = Mouse liver microsomal stability; type: in vitro ADME; settings: for microsomal CLint at 0.5 μM: CD1, mouse, liver microsomes
Description: The metabolic stability of the compounds was evaluated in human (pool of 200 donors, XenoTech) and mouse liver microsomes (CD1 mouse, GIBCO). Test compounds were prepared at a concentration of 0.5 μM and incubated with 0.25 mg/mL liver microsomes at pH 7.4 and 37°C. The reaction was started by addition of NADPH at […]. Samples were taken at 0, 5, 10, 15, 20 and 30 minutes. The reaction was stopped by the addition of acetonitrile:methanol (1:1) containing an internal standard (tolbutamide at 50 nM). Compounds were quantified by liquid chromatography triple quadrupole mass spectrometry (LC-MS/MS). Peak area ratios (analyte/internal standard) were converted to % remaining using the area ratio at time 0 as 100%. Half-life (t1/2 = ln(2)/k) in minutes and intrinsic clearance (Clint = k x 1000/(0.25)) in μL/min/mg were calculated using a non-linear regression from % remaining versus incubation time. From this plot, the slope (k) was determined. The analysis conditions were: analytical column (Gemini C18, […], Phenomenex), electrospray ionization source (ESI) in positive and negative mode, mobile phase A (water + 0.1% formic acid) and B (acetonitrile + 0.1% formic acid), flow rate of 0.7 mL/min.

[5] = Parallel artificial membrane permeability assay (PAMPA); type: in vitro ADME; settings: S1 Data; for Papp at 5 h, 10 μM: PAMPA, read-out: PAMPA Pe
Description: To determine the passive permeability of the compounds, a 96-well plate containing membranes pre-coated with lipids (Corning Gentest # 353015) was used. The solutions of the compounds were prepared by diluting the stock solutions (10mM) in phosphate buffered saline (PBS) pH 6.5 at a final concentration of 10μM. The solutions diluted in PBS pH 6.5 were then added to the donor portion of the plate (300 μl/well), while PBS pH 7.4 (200 μl/well) was added to the acceptor portion. The two portions of the plate were then coupled, and the system was incubated for 5 h at 37°C. At the end of the incubation, samples were collected from the donor and acceptor plates, and then added to plates containing quench solution (10% water and 90% methanol: acetonitrile (50:50) + 50 nM tolbutamide). The final concentrations of compounds in the donor, acceptor, and initial solution (T0) wells were analyzed using LC-MS/MS. The results were used to calculate an effective permeability (Pe) value. The PAMPA assay was performed in triplicate (n = 3).

Kinetic solubility = type: physicochemical; settings: for solubility kinetic at 24 h: PBS buffer pH 7.4, aqueous buffer, kinetic from dmso stock, PBS pH 7.4, read-out: KS PBS - pH7.4
Description: The precipitates on the incubation plate were removed by centrifugation (15 min, 3000 rpm, r.t.); the compound concentration in the resulting supernatant was determined by LC-MS/MS. Results were calculated as the concentration of remaining compound in solution after incubation.

MRC-5 cells = assay: MRC-5 cytotoxicity; type: cell-based; settings: S1 Data
[6] = Leishmania infantum, 120 h, intracellular amastigotes in PMM, 5 days
[7] = reverse stationary phase HPLC column (Ascentis RP-Amide), pH 7.4, S1 Data
[8] = pH 7.4, S1 Data, read-out: MLM CLint
[9] = intracellular amastigotes in PMM, 5 days

Molecule | IC50 [1, 6] [µM] | IC50 ([1]; Leishmania infantum, S1 Data) [µM] | IC50 ([2]; Mus musculus, Macrophage) [µM] | CC50 (MRC-5 cytotoxicity) [µM] | Papp at 5 h, 10 μM [5] [×10⁻⁶ cm/s] | SI: selectivity index (CC50 / IC50) [1] | MLM CLint ([4]; S1 Data) [µL/min/mg] | IC50 ([1]; S1 Data) [µM] | IC50 [1, 9] [µM] | IC50 ([2]; S1 Data) [µM] | CC50 (MRC-5 cells) [µM] | eLogD ([3]; S1 Data) | PAMPA Pe [5] | further results
N#Cc1ccc2nc(NC(=O)Cc3ccc(F)cc3F)n(CC(F)(F)F)c2c1 [Compound 24, Fc1cc(F)ccc1CC(Nc2nc(ccc(C#N)c3)c3n2CC(F)(F)F)=O] | 10 | 10.2 | 16 | > 64 | 0.76 |  |  |  |  |  |  |  |  | CC50 (HEPG2 cytotoxicity): > 64 µM; chromatographic logD [3, 7]: 3.85; microsomal CLint at 0.5 μM [4, 8]: 20 µL/min/mg; microsomal CLint at 0.5 μM ([4]; pH 7.4, mouse liver microsome intrinsic clearance, read-out: MLM Clint): 19.6 µL/min/mg
CC(C)(C)Cn1c(NC(=O)c2ccn[nH]2)nc2ccc(C#N)cc21 [Compound 34, O=C(Nc1nc(ccc(C#N)c2)c2n1CC(C)(C)C)c3ccn[nH]3] | 38 | 38.3 | 50.8 | > 64 | 11.1 | 1 |  |  |  |  |  |  |  | CC50 (HEPG2 cytotoxicity): 16 µM; eLogD ([3]; experimental, pH 7.4): 3.6; chromatographic logD [3, 7]: 3.67; microsomal CLint at 0.5 μM [4, 8]: 47 µL/min/mg
CC(C)(C)Cn1c(NC(=O)c2cccnc2)nc2ccc(C#N)cc21 [Compound 41, O=C(Nc1n(CC(C)(C)C)c(c2n1)cc(C#N)cc2)c3cccnc3] | 8.6 | 8.57 | 16 | > 64 | 18 | 2 | 87 |  |  |  |  |  |  | chromatographic logD [3, 7]: 3.9
COCCn1c(NC(=O)c2ccnn2C)nc2ccc(C#N)cc21 [Compound 50, O=C(c1ccnn1C)Nc2nc(ccc(C#N)c3)c3n2CCOC] | 47 | 47 | > 64 | > 64 | 14.7 | 1 | 98 |  |  |  |  |  |  | solubility kinetic at 24 h (Kinetic solubility): 5.98 µg/mL (≈ 18.4 µM); KS PBS - pH 2 (Kinetic solubility): 7.77 ug/mL
Cn1nccc1C(=O)Nc1nc2cccnc2n1CC(C)(C)C [Compound 54, CC(Cn1c(NC(=O)c2n(C)ncc2)nc(c13)cccn3)(C)C] | 7.8 | 7.75 | 32 | 43.7 | 11.7 | 4 | 222 |  |  |  |  |  |  | chromatographic logD [3, 7]: 4.04; chromatographic logD ([3]; reverse-phase HPLC retention (Ascentis RP-Amide column), experimental, pH 7.4): 4
Cn1nccc1C(=O)Nc1nc2cncnc2n1CC(F)(F)F [Compound 55, O=C(c1ccnn1C)Nc2nc(cncn3)c3n2CC(F)(F)F] | 4 | 4.03 | 8 | 24.8 | 13.6 | 2 | 24 |  |  |  |  |  |  | solubility kinetic at 24 h (Kinetic solubility): 65 µg/mL (≈ 200 µM); KS PBS - pH 2 (Kinetic solubility): 64.44 ug/mL
CCCn1c(NC(=O)Cc2ccc(F)cc2)nc(c13)cc(C(=O)N4CCOCC4)cc3 [Compound 14] |  |  |  |  |  | 1 | <23 | 57 | 57 | > 64 | > 64 | 3.05 | 7.26 10-6 cm/s | MLM CLint ([4]; mouse liver microsome intrinsic clearance): 23 µL/min/mg
CCCn1c(NC(=O)Cc2ccc(F)cc2)nc(c13)cc(C(=O)N(C)OC)cc3 [Compound 15] |  |  |  |  |  | 5 | 128 | 12.7 | 13 | > 64 | 55.5 | 3.31 | 9.07 10-6 cm/s | eLogD ([3]; experimental, pH 7.4): 3.3
CCCn1c(NC(=O)Cc2ccc(F)cc2)nc(c13)cc(C(=O)NC4CC4)cc3 [Compound 12] |  |  |  |  |  | 1 | 52 | 45.2 | 45 | > 64 | > 64 | 3.50 | 13.10 10-6 cm/s | eLogD ([3]; experimental, pH 7.4): 3.5
CCCn1c(NC(=O)Cc2ccc(F)cc2)nc(c13)cc(C(=O)NC)cc3 [Compound 11] |  |  |  |  |  | 1 | 66 | > 64 |  | > 64 | 34.8 | 3.18 | 9.18 10-6 cm/s | 
CCCn1c(NC(=O)Cc2ccc(F)cc2)nc(c13)cc(C(=O)O)cc3 [Compound 10] |  |  |  |  |  | 1 |  | > 64 |  | > 64 | > 64 | 1.83 | 6.27 10-6 cm/s | L. infantum IC50 [1, 9]: inactive
CCCn1c(NC(=O)Cc2ccc(F)cc2)nc(c13)cc(C(=O)OC)cc3 [Compound 9] |  |  |  |  |  | 3 | 1253 | 6.49 | 6.5 | 16 | 18.7 | 4.04 | 8.66 10-6 cm/s | 
O=C(Nc1n(C2CC2)c(c3n1)ccc(F)c3)Cc4ccc(Cl)cc4 [Compound 22] |  |  |  |  |  |  | 380 | 2.54 |  | 25.4 | 21.9 | 3.98 | 17.70 10-6 cm/s | 
O=C(c1cc(nc(NC(=O)Cc2ccc(F)cc2)n3CCC)c3cc1)N4CCCC4 [Compound 13] |  |  |  |  |  | 6 | 138 | 9.79 | 9.8 | > 64 | > 64 | 3.99 | 7.92 10-6 cm/s | eLogD ([3]; experimental, pH 7.4): 4.0
